# Experimental data: PubChem BioAssay AID1996
# Conditions: buffer; pH 7.4; 200.0 µM
row,SMILES,solubility kinetic [µg/mL]
1,NC(=O)CNC(=O)c1ccc(Cl)cc1,> 31.9
2,CC(=O)N(c1nc(CCl)cs1)c1cccc(C)c1C,> 44.2
3,CN(C)c1ncc([N+](=O)[O-])cc1C(F)(F)F,5.2
4,COC(=O)/C(C#N)=C/N(C)C,> 23.1
5,Cc1cc(NC(=O)Cn2c(=O)oc3ccc(Cl)cc32)no1,1.5
6,CCCC(=O)NC(c1ccc(C)cc1)c1ccc2cccnc2c1O (configuration not stated),1.2
7,CC(C)[C@H](NC(=O)c1ccccc1)C(=O)NC1=NCCS1,44.6
8,Cc1ccc(CNC(=O)Nc2ccc(OC(F)(F)F)cc2)n1C,9.4
9,COc1cc(OC)c(OC)cc1CNCc1ccc2c(c1)OCO2,> 49.7
10,Cc1ccc(Nc2nc(-c3cccs3)cs2)nc1,0.8
11,Cc1cc(C)c2oc(=O)cc(CN3CCC(C)CC3)c2c1,4.1
12,O=S(=O)(NCCCCNS(=O)(=O)c1ccc(F)cc1)c1ccc(F)cc1,0.7
13,CC(=O)c1cccc(NC(=O)COC(=O)C2CCCN2C(=O)c2cccs2)c1 (configuration not stated),6.5
14,CCOC(=O)c1c(NC(=O)COC(=O)c2cnccn2)sc(C)c1C,16.8
15,COc1cccc(C(C)NC(=O)C2CCCC2)c1 (configuration not stated),> 37.1
16,COc1cc(NS(=O)(=O)c2ccc(NC(=O)/C=C/C(=O)O)cc2)nc(OC)n1,> 61.3
17,Cc1c(Cl)cccc1NC(=O)CNC(=O)C1CC(=O)N(C2CCCC2)C1 (configuration not stated),> 56.7
18,CC(=O)c1ccc(NC(=O)CN2CCCCCC2)cc1,> 41.2
19,CCCCCCC(O)(CCN1CCCCC1)c1ccccc1.Cl (configuration not stated),49.3
20,Cc1noc(C)c1C(=O)NCC(=O)Nc1ccccc1Br,> 52.8
21,Cc1ccc(S(C)(=O)=NC(=O)NC(=O)c2c(F)cccc2Cl)cc1 (configuration not stated),41.1
22,CC1CC(C)(C)NC(=S)N1CC(=O)NCc1ccc(F)cc1 (configuration not stated),41.5
23,COc1ccc(NC(=O)Nc2cccnc2)cc1,> 36.5
24,CCCN1C(=O)C2(SC(NC(C)=O)=NN2C(C)=O)c2cc(C)cc(C)c21 (configuration not stated),> 56.2

row,SMILES,solubility kinetic [µg/mL]
1,Cc1ccc(C(=O)Nc2c[nH]c(=O)[nH]c2=O)cc1,7.9
2,Cc1cc(NC(=O)c2cc([N+](=O)[O-])ccc2Cl)no1,> 42.2
3,Cc1cc(C)nc(Nc2ccc(Cl)cc2C)n1.Cl,21.2
4,Cc1cccnc1NC(=S)Nc1ccc(Cl)c(Cl)c1,3.7
5,O=C(NN1CCOCC1)c1cc(Cl)ccc1Cl,> 41.3
6,COc1ccc2cc(C(=O)N3CCN(C)CC3)[nH]c2c1,> 41
7,CC1CCCC(NC(=O)Cn2cc([N+](=O)[O-])ccc2=O)C1C (configuration not stated),44
8,Cl.NCCc1c[nH]c2ccc(O)cc12,> 31.9
9,N#C/C(=C\c1cc([N+](=O)[O-])ccc1Cl)C(N)=O,33.5
10,Cn1cccc1C(=O)Nc1ccc(Cl)c(S(=O)(=O)N2CCCCC2)c1,8.7
11,COCCCNC(=S)N1CCC(C(=O)c2ccc(Cl)cc2)CC1,> 53.2
12,Cc1csc(NC(=O)c2ccc(C)s2)n1,25.9
13,CC(=O)c1c(C)nc(-c2cccc([N+](=O)[O-])c2)n1O,> 39.2
14,Cc1ccc(NC(=O)CCN2CCC(C)CC2)cc1.Cl,> 44.5
15,O=C(Nc1ccc(Oc2cccnc2)nc1)c1ccc(C(F)(F)F)cc1,10.3
16,COc1cccc(S(=O)(=O)NCC(=O)N2CCCCCC2)c1,> 49
17,CCOC(=O)N1CCN(CC(=O)Nc2sccc2C#N)CC1,> 48.4
18,Cc1ccccc1CC(=O)NCC1CCCCC1,12.9
19,O=C1NCCO1,> 13.1
20,Cc1cccc(C)c1NC(=O)CN1CCN(C(=O)c2ccc(OCc3cn4ccccc4n3)cc2)CC1,> 74.6
21,CC(C)CC1NC(=O)N(CC(=O)Nc2cc(S(=O)(=O)N3CCOCC3)ccc2Cl)C1=O (configuration not stated),8.2
22,C#CCOc1c(Cl)cc(/C=C2/C(=O)ON=C2C)cc1OC,43.5
23,C=CCNc1nc(C)c(CNc2c(C)cc(C)cc2C)nc1C#N,0.9

# Continued, values first:
row,solubility kinetic [µg/mL],SMILES
1,> 51.7,Cc1ccnc(SC2CC(=O)N(c3ccc([N+](=O)[O-])cc3)C2=O)n1 (configuration not stated)
2,0.6,c1ccc(NC2=Nc3cccc4cccc2c34)cc1
3,45.3,Cc1c(C(=O)N2CCOCC2)cc(C(C)(C)C)n1-c1ccccc1
4,> 45.4,Cc1[nH]c2ccccc2c1SCC(=O)NC1CCCCC1
5,> 46.9,COCCSc1ccccc1C(=O)Nc1ccccc1C#N
6,< 0.2,COc1ccc2c(C)nc(Nc3nc(-c4ccccc4)cc(=O)[nH]3)nc2c1
7,8.1,Cc1c(C#N)c(NC(=O)C(C)C)n(Cc2ccccc2)c1C
8,9.9,CCOn1c(=O)c(-c2ccc(F)cc2)[n+]([O-])c2ccccc21
9,5.3,O=C1CCC(=O)N1OCCOc1ccc(Cl)c2ccccc12
10,47.4,O=C(O)CNC(=S)N(Cc1ccccc1)Cc1ccccc1F
11,15.6,CCc1sc(NC(=O)C(C)C)nc1-c1ccccc1
12,> 48.7,COc1ccccc1N1CCN(C(=O)CCc2ccccc2)CC1
13,> 35,CC1(C)CN2C(=O)c3ccccc3C2(C)S1 (configuration not stated)
14,44.4,O=C1CN(C(=O)COc2c(F)c(F)cc(F)c2F)c2ccccc2N1
15,> 40.1,O=C1CC(Cc2ccccc2)C(=O)N1c1ncccn1 (configuration not stated)
16,3.7,CCN(c1ccccc1)S(=O)(=O)c1ccc(C(=O)Nc2cccc(NC(C)=O)c2)cc1
17,< 0.4,CCC(=O)c1cn(CC(=O)Nc2c(C)cccc2C)c2ccccc12
18,> 42.4,NC(=O)C1CCN(C(=O)c2ccc3ccccc3c2)CC1
19,25.9,O=C1C2C3C=CC(CC3)C2C(=O)N1c1ccccc1 (configuration not stated)
20,5.7,O=C(NCc1csc(-c2ccccc2)n1)c1cc(F)cc2c1OCOC2

row,solubility kinetic [µg/mL],SMILES
1,27.9,CN(C)c1cccc(C(=O)OCC(=O)N2CCc3ccccc3C2)c1
2,> 41.1,N#C/C(=C\c1cccs1)C(=O)c1ccccc1Cl
3,40.5,CC(=O)Nc1ccccc1C(=O)C(=O)NCCc1ccccc1
4,1,COCCNC(=O)CSc1ncnc2sc(-c3ccccc3)cc12
5,> 47,Cc1cccnc1NC(=O)c1ccc2c(c1)NC(=O)C(C)S2 (configuration not stated)
6,13.8,CCSc1ccccc1C(=O)Nc1ccc2c(c1)OCO2
7,2.2,Cc1cc(NC(=O)CSc2cc(C)c3ccccc3n2)no1
8,> 39.3,N#CC1(c2ccccc2)CCC(=O)N1c1ccccc1 (configuration not stated)
9,45.4,Cn1c(C(=O)N[C@@H](C(=O)O)c2ccccc2)cc2cc(F)ccc21
10,36.7,C=CCN1C(=O)C2(OCCCO2)c2ccccc21
11,> 38.4,COc1ccc2ccccc2c1-c1csc(N)n1
12,> 47.3,COc1ccccc1C(=O)NCCC(=O)Nc1ncccc1O
13,17.6,COC(OC)c1ccnc(SCc2ccccc2Cl)n1
14,2.1,S=C(Nc1ccccc1)Nc1ccc(Cl)cn1
15,41,O=C(CSCc1ccccc1)Nc1ccc(F)cc1F
16,> 51.2,COCc1nnc(NC(=O)CCS(=O)(=O)c2ccccc2)s1
17,> 43.7,COc1ccccc1NC(=O)C(C)Sc1nccn1C (configuration not stated)
18,> 42.2,CCc1noc(C)c1C(=O)Nc1cccc2ncccc12
19,> 48.2,O=C(CN1N=C(c2ccccc2)CCC1=O)NCc1ccccc1
20,41,CCOC(=O)c1ccc(N2C(=O)C3CCCN3C2=S)cc1 (configuration not stated)
